Converted amounts (≈) assume the structure as drawn. “Also recorded” adds a separate entry of the source.
Tests used:
[1] = serum half-life after intravenous administration to rats; details: rat, in vivo, rats, intravenously
Description: The A82846 antibiotics have excellent in vitro and in vivo activity against Gram-positive pathogenic bacteria. A particularly unexpected attribute of these antibiotics is their long serum half-life.

Staphylococcus aureus [2] = test: MIC by standard agar-dilution assay (Table VIII); assay type: cell-based; details: Staphylococcus aureus, 20 strains tested, read-out: MIC
Experimental: (§1) The MIC's in Tables VII and VIII were determined by standard agar-dilution assays.

[3] = tested on: Staphylococcus epidermidis; test: MIC by standard agar-dilution assay (Table VIII); assay type: cell-based; details: Staphylococcus epidermidis, 20 strains tested, read-out: MIC
Experimental: as §1

Streptococcus mutans = test: MIC by standard agar-dilution assay (Table VIII); assay type: cell-based; details: Streptococcus mutans, 2 strains tested, read-out: MIC
Experimental: as §1

Streptococcus pneumoniae [4] = test: MIC by standard agar-dilution assay (Table VIII); assay type: cell-based; details: Streptococcus pneumoniae, 20 strains tested, read-out: MIC
Experimental: as §1

Streptococcus pyogenes [5] = test: MIC by standard agar-dilution assay (Table VIII); assay type: cell-based; details: Streptococcus pyogenes, 12 strains tested, read-out: MIC
Experimental: as §1

Streptococcus salivaris = test: MIC by standard agar-dilution assay (Table VIII); assay type: cell-based; details: Streptococcus, 1 strain tested, read-out: MIC
Experimental: as §1

Streptococcus sanguis = test: MIC by standard agar-dilution assay (Table VIII); assay type: cell-based; details: Streptococcus, 4 strains tested, read-out: MIC
Experimental: as §1

[6] = tested on: Streptococcus sp. group. D; test: MIC by standard agar-dilution assay (Table VIII); assay type: cell-based; details: Streptococcus, 20 strains tested, read-out: MIC
Experimental: as §1

Clostridium difficile = test: MIC against anaerobic bacteria, standard agar-dilution assay (Table IX); assay type: cell-based; details: Clostridioides difficile; 19 strains; Gram-positive anaerobe; 24-hour incubation; read-out: MIC
Clostridium perfringens = test: microbe, parasite or virus in culture; assay type: cell-based; details: Clostridium perfringens, 24 h
Eubacterium aerofaciens = test: MIC against anaerobic bacteria, standard agar-dilution assay (Table IX); assay type: cell-based; details: Collinsella aerofaciens; 1 strain; Gram-positive anaerobe; 24-hour incubation; read-out: MIC
[7] = tested on: Peptococcus asaccharolyticus; test: as above; assay type: cell-based; details: Peptoniphilus asaccharolyticus; 3 strains; Gram-positive anaerobe; 24-hour incubation; read-out: MIC
Peptococcus prevoti = test: as above; assay type: cell-based; details: 4 strains; Gram-positive anaerobe; 24-hour incubation; read-out: MIC
Peptococcus variabilis = test: as above; assay type: cell-based; details: 1 strain; Gram-positive anaerobe; 24-hour incubation; read-out: MIC
Peptococcus constellatus = test: as above; assay type: cell-based; details: Streptococcus constellatus; 1 strain; Gram-positive anaerobe; 24-hour incubation; read-out: MIC
Peptococcus magnus = test: as above; assay type: cell-based; details: Finegoldia magna; 3 strains; Gram-positive anaerobe; 24-hour incubation; read-out: MIC
[8] = tested on: Peptostreptococcus anaerobius; test: as above; assay type: cell-based; details: Peptostreptococcus anaerobius; 8 strains; Gram-positive anaerobe; 24-hour incubation; read-out: MIC
[9] = tested on: Peptostreptococcus intermedius; test: as above; assay type: cell-based; details: Peptostreptococcus; 3 strains; Gram-positive anaerobe; 24-hour incubation; read-out: MIC
Propionibacterium acnes = test: as above; assay type: cell-based; details: Cutibacterium acnes; 19 strains; Gram-positive anaerobe; 24-hour incubation; read-out: MIC
Bacteroides fragilis = test: as above; assay type: cell-based; details: Bacteroides fragilis; 3 strains; Gram-negative anaerobe; 24-hour incubation; read-out: MIC
[10] = tested on: Bacteroides thetaiotaomicron; test: as above; assay type: cell-based; details: Bacteroides thetaiotaomicron; 1 strain; Gram-negative anaerobe; 24-hour incubation; read-out: MIC
[11] = tested on: Bacteroides melaninogenicus; test: as above; assay type: cell-based; details: 2 strains; Gram-negative anaerobe; 24-hour incubation; read-out: MIC
Bacteroides vulgatis = test: as above; assay type: cell-based; details: Bacteroides; 1 strain; Gram-negative anaerobe; 24-hour incubation; read-out: MIC
Bacteroides corrodens = test: as above; assay type: cell-based; details: Eikenella corrodens; 1 strain; Gram-negative anaerobe; 24-hour incubation; read-out: MIC
Fusobacterium symbiosum = test: as above; assay type: cell-based; details: Fusobacterium; 1 strain; Gram-negative anaerobe; 24-hour incubation; read-out: MIC
[12] = tested on: Fusobacterium necrophorum; test: as above; assay type: cell-based; details: Fusobacterium necrophorum; 1 strain; Gram-negative anaerobe; 24-hour incubation; read-out: MIC
Staphylococcus aureus [13] = test: protection of mice experimentally infected with test organism (Table X); assay type: in vivo; details: sc, read-out: ED50 Value
Experimental: (§2) The A82846 antibiotics have also shown in vivo antimicrobial activity against experimentally-induced infections in laboratory animals. When two doses of test compound were administered to mice experimentally infected with the test organism, the activity observed was measured as an ED50 value [effective dose in mg/kg to protect 50% of the test animals: see Warren Wick, et al., J. Bacteriol. 81, 233-235 (1961)].
(§3) ^a mg/kg × 2; doses administered subcutaneously to mice 1 and 4

Streptococcus pneumoniae [14] = test: as above; assay type: in vivo; details: sc, read-out: ED50 Value
Experimental: as §2, §3

Streptococcus pyogenes [15] = test: as above; assay type: in vivo; details: sc, read-out: ED50 Value
Experimental: as §2, §3

[16] = tested on: experimental descending pyelonephritis infection in rats; test: Rat Descending Pyelonephritis Test (Table XI); assay type: in vivo
Experimental: In one important aspect of their antibacterial activity, the A82846 antibiotics are useful for treating pyelonephritis. […] This test was carried out using a procedure like that described in U.S. Pat. No. 4,208,403.
^a Doses twice per day subcutaneously for 6 days

[17] = tested on: Streptococcus faecalis X-66; test: Rat Endocarditis Test, catheter-induced (Table XII); assay type: in vivo, rats; details: 16 days, 20 mg/kg × 28, subcutaneous at 12-hour intervals for 14 days
Experimental: The A82846 antibiotics are also useful in the treatment of endocarditis. […] In this test, rats were prepared by inserting a plastic catheter into the right carotid artery, feeding it down into the […] of the heart and anchoring it securely. The animals were allowed to rest two days, and then the test organism, Streptococcus faecalis X-66, was administered intravenously. The organism titer was approximately 5×10^8 /mL; 0.5 mL was administered.
The compounds were administered subcutaneously 15 minutes prior to infection and at 12-hour intervals for 14 days, a total of 28 treatments. The animals were held 2 days after therapy; then, the hearts were removed, homogenized, diluted and plated on trypticase soy agar. Plates were incubated 48 hours before counting.
^a Catheterinduced endocarditis using Streptococcus faecalis X66
^b Subcutaneous doses at 12hour intervals for 14 days
^c % of animals sacrificed with 4 log drop

[18] = human medicine; cited from earlier work
Clostridium septicum = test: MIC against anaerobic bacteria, standard agar-dilution assay (Table IX); details: Clostridium septicum, 24 h
[19] = tested on: Cultures A82846 and A82846.1; test: resistance to antibiotics, antibiotic sensitivity discs on seeded agar plates; details: disc 30 μg
[20] = 2 mg/kg × 12, subcutaneous twice per day for 6 days
[21] = 5 mg/kg × 12, subcutaneous twice per day for 6 days
[22] = 10 mg/kg × 12, subcutaneous twice per day for 6 days

Structure (SMILES): CN[C@H](CC(C)C)C(=O)N[C@H]1C(=O)N[C@@H](CC(N)=O)C(=O)N[C@H]2C(=O)N[C@H]3C(=O)N[C@H](C(=O)N[C@H](C(=O)O)c4cc(O)cc(O)c4-c4cc3ccc4O)[C@H](O)c3ccc(c(Cl)c3)Oc3cc2cc(c3O[C@@H]2O[C@H](CO)[C@@H](O)[C@H](O)[C@H]2O[C@H]2C[C@](C)(N)[C@H](O)[C@H](C)O2)Oc2ccc(cc2Cl)[C@H]1O [Vancomycin, vancomycin, reference compound]
- half-life [1]: 45 min
- MIC (Staphylococcus aureus [2]): 0.5 to 2 µg/mL (≈ 0.345 to 1.38 µM)
- MIC [3]: 1 to 2 µg/mL (≈ 0.69 to 1.38 µM)
- MIC (Streptococcus mutans): 0.125 to 2 µg/mL (≈ 0.0863 to 1.38 µM)
- MIC (Streptococcus pneumoniae [4]): 0.015 to 4 µg/mL (≈ 0.0104 to 2.76 µM)
- MIC (Streptococcus pyogenes [5]): 0.5 µg/mL (≈ 0.345 µM)
- MIC (Streptococcus salivaris): 0.5 µg/mL (≈ 0.345 µM)
- MIC (Streptococcus sanguis): 0.5 to 1 µg/mL (≈ 0.345 to 0.69 µM)
- MIC [6]: 1 to 2 µg/mL (≈ 0.69 to 1.38 µM)
- MIC (Clostridium difficile): 0.5 to 4 µg/mL (≈ 0.345 to 2.76 µM)
- MIC (Clostridium perfringens): 2 µg/mL (≈ 1.38 µM)
- MIC (Eubacterium aerofaciens): 2 µg/mL (≈ 1.38 µM)
- MIC [7]: 1 µg/mL (≈ 0.69 µM)
- MIC (Peptococcus prevoti): 1 to 4 µg/mL (≈ 0.69 to 2.76 µM)
- MIC (Peptococcus variabilis): 1 µg/mL (≈ 0.69 µM)
- MIC (Peptococcus constellatus): 1 µg/mL (≈ 0.69 µM)
- MIC (Peptococcus magnus): 0.25 to 1 µg/mL (≈ 0.173 to 0.69 µM)
- MIC [8]: 0.25 to 2 µg/mL (≈ 0.173 to 1.38 µM)
- MIC [9]: 0.5 to 1 µg/mL (≈ 0.345 to 0.69 µM)
- MIC (Propionibacterium acnes): 2 to 16 µg/mL (≈ 1.38 to 11 µM)
- MIC (Bacteroides fragilis): 32 to 64 µg/mL (≈ 22.1 to 44.2 µM)
- MIC [10]: 64 µg/mL (≈ 44.2 µM)
- MIC [11]: > 128 µg/mL
- MIC (Bacteroides vulgatis): 64 µg/mL (≈ 44.2 µM)
- MIC (Bacteroides corrodens): 64 µg/mL (≈ 44.2 µM)
- MIC (Fusobacterium symbiosum): 4 µg/mL (≈ 2.76 µM)
- MIC [12]: 1 µg/mL (≈ 0.69 µM)
- ED50 (Staphylococcus aureus [13]): 1.3 mg/kg
- ED50 (Streptococcus pneumoniae [14]): 1.52 mg/kg
- ED50 (Streptococcus pyogenes [15]): 0.72 mg/kg
- Percent of Rats Cured [16, 20]: 38%
- Percent of Rats with a 4-Log Reduction in Titer [16, 20]: 75%
- Percent of Rats Cured [16, 21]: 38%
- Percent of Rats with a 4-Log Reduction in Titer [16, 21]: 88%
- Percent of Rats Cured [16, 22]: 63%
- Percent of Rats with a 4-Log Reduction in Titer [16, 22]: 100%
- % Cured [17]: 100%
- % With 4 Log Drop ([17]; % of animals sacrificed): 100%
- side effects [18]: ototoxicity; also recorded: nephrotoxicity
- MIC (Clostridium septicum): 2 µg/mL (≈ 1.38 µM)
- antibiotic resistance [19]: resistant
